The values that follow come from patent US7273848B2, “Apolipoprotein A-I agonists and their use to treat dyslipidemic disorders” (priority 1997, dated 2007).

The nature of data set [1]: Circular dichroism helicity determination. It is filed as physicochemical. The conditions noted are these: percent helicity; for He (%) TFE: 5 μM peptide, 90% vol TFE; for He (%) TFE / He (%) SUVs: 37° C.; for He (%) free: unbound peptide 5 μM in 5 mM phosphate buffer, pH 7.4, 37° C.; for He (%) SUVs: peptide-SUV complexes (20:1 EPC:Chol., Ri=30 and Ri=50); for He (%) mics: peptide-micelle complexes, Ri=100, 37° C. In outline: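 Far-UV CD (190–260 nm) at 37° C on 5 μM peptide in 5 mM phosphate pH 7.4, free, with EPC:Chol 20:1 SUVs (Ri 30 or 50), lysophosphatidylcholine micelles (Ri 100) or 90% TFE. Spectra converted to molar ellipticity per residue; helicity from 222 nm ellipticity or CONTIN fitting to reference spectra, ±5%.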
A general note: Circular dichroism is widely used to follow secondary structure.

The target in data set [2] is T1, LCAT (purified from human plasma) (Homo sapiens, UniProt P04180).
T1 construct: from tissue; host or cells: human plasma
T1 sequence (P04180 25-440): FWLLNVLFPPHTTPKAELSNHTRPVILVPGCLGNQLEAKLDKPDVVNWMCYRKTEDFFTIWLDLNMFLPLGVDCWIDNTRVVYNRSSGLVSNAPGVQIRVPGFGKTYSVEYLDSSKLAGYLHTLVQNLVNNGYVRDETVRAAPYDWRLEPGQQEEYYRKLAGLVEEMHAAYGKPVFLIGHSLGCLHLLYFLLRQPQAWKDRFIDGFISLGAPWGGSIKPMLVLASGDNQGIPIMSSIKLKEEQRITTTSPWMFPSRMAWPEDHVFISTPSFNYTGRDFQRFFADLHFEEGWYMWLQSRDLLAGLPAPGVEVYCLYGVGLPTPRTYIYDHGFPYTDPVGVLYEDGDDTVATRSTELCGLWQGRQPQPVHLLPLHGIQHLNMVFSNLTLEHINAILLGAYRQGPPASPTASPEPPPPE
Kind of data set: LCAT activation assay. It is filed as biochemical. The note with it: LCAT activation as compared with native human ApoA-I (= 100%), equivalent masses. In outline: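 Substrate SUVs of EPC or POPC with 14C-cholesterol (20:1 molar ratio), in 10 mM Tris, 0.14 M NaCl, 1 mM EDTA, pH 7.4, were preincubated with peptide or equal mass of plasma ApoA-I. Reaction started with human plasma LCAT; activation was measured as cholesterol-to-ester conversion relative to ApoA-I (100%).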

No end group written: not given here.

In the case of “Ac-PVLDLFRELLEELKQKLK-NH2 [compound 193]”, in data set [1], the “He (%) TFE” value was found to be 87%, the “He (%) free” value turned out to be 34%, the “He (%) SUVs” value is listed as 87% and the “He (%) mics” value was 88%. In addition, in data set [2], the “ACTIVITY (%) LCAT” value is listed as 96%.

In the case of “Ac-PVLDLFRELLEEWKQKLK-NH2 [compound 215]”, in data set [1], the “He (%) TFE” value was 68%, the “He (%) free” value amounted to 28%, the “He (%) SUVs” value was 53% and the “He (%) mics” value was 63%. The “ACTIVITY (%) LCAT” value in data set [2] is given as 38%.

Turning to “Ac-PVLDLFRELWEELKQKLK-NH2 [compound 199]”, in data set [1], the “He (%) TFE” value is 79%, the “He (%) free” value amounted to 35%, the “He (%) SUVs” value was 80% and the “He (%) mics” value came out at 77%. The “ACTIVITY (%) LCAT” value in data set [2] turned out to be 76%.

Consider “Ac-PVLELFRELLEELKQKLK-NH2 [compound 194]”, for which, in data set [1], the “He (%) TFE” value came out at 93%, the “He (%) free” value turned out to be 38% and the “He (%) mics” value is 93%. In addition, the “ACTIVITY (%) LCAT” value in data set [2] was 88%.

Take “DWFKAFYDKVAEKFKEAF [peptide 243, reference compound]”: in data set [1], the “He (%) free” value is recorded as 10%, the “He (%) SUVs” value came to 50% and the “He (%) mics” value was found to be 64%. The “ACTIVITY (%) LCAT” value in data set [2] stood at 5%.

For the substance “DWLKAFYDKVAEKLKEAF [peptide 244, reference compound]”, in data set [1], the “He (%) TFE” value was 48%, the “He (%) free” value came out at 9%, the “He (%) SUVs” value worked out at 13% and the “He (%) mics” value was determined as 40%. Further, the “ACTIVITY (%) LCAT” value in data set [2] is 5%.

“DWLKAFYDKVFEKFKEFF [peptide 245, reference compound]”: in data set [1], the “He (%) free” value worked out at 38%, the “He (%) SUVs” value was determined as 70% and the “He (%) mics” value is on record as 77%. For the same substance, the “ACTIVITY (%) LCAT” value in data set [2] was 4%.

In the case of “EWLEAFYKKVLEKLKELF [peptide 246, reference compound]”, in data set [1], the “He (%) free” value was 18%, the “He (%) SUVs” value was 47% and the “He (%) mics” value is recorded as 44%. Moreover, the “ACTIVITY (%) LCAT” value in data set [2] was determined as 4%. The “ACTIVITY (%) LCAT” value in data set [2] (listed as 18AM4) is given as “less than 4%”.

As to “EWLKAFYEKVLEKLKELF [peptide 248, reference compound]”, in data set [1], the “He (%) free” value was 18%, the “He (%) SUVs” value was 13% and the “He (%) mics” value worked out at 45%. In data set [2], the “ACTIVITY (%) LCAT” value is listed as 3%.

GVLELFENLLERLLDALQKKLK [peptide 145]: in data set [1], the “He (%) TFE” value is 58%, the “He (%) free” value was determined as 55% and the “He (%) mics” value amounted to 51%. Also, the “ACTIVITY (%) LCAT” value in data set [2] is reported as 100%.

With “LDDLLQKWAEAFNQLLKK [peptide 237, reference compound]”, in data set [1], the “He (%) free” value is listed as 30%, the “He (%) SUVs” value came out at 45% and the “He (%) mics” value is reported as 66%. In data set [2], the “ACTIVITY (%) LCAT” value is listed as 11%.

With PAADAFREAANEAAEAAKQKAK [compound 105], in data set [1], the “He (%) TFE” value is 65%, the “He (%) free” value was found to be 29%, the “He (%) SUVs” value was found to be 32% and the “He (%) mics” value amounted to 28%. Moreover, the “ACTIVITY (%) LCAT” value in data set [2] is reported as 1%.

For PLDLFRELLNELLEALKQKLK [compound 85], in data set [1], the “He (%) TFE” value turned out to be 69%, the “He (%) free” value was 58%, the “He (%) SUVs” value was 64% and the “He (%) mics” value is listed as 61%. Besides, in data set [2], the “ACTIVITY (%) LCAT” value is listed as 7%.

For PLFRELLNELLEALKQKLK [compound 55], in data set [1], the “He (%) TFE” value is on record as 75%, the “He (%) free” value turned out to be 38%, the “He (%) SUVs” value is listed as 78% and the “He (%) mics” value is recorded as 72%. The “ACTIVITY (%) LCAT” value in data set [2] is recorded as 19%.

Regarding PLLELLKELLQELLEALKQKLK [compound 36], in data set [1], the “He (%) TFE” value came to 95%, the “He (%) free” value is on record as 95% and the “He (%) mics” value is 100%. In addition, the “ACTIVITY (%) LCAT” value in data set [2] is 31%.

Turning to PLLNELLEALKQKLK [compound 104], in data set [1], the “He (%) TFE” value was found to be 55%, the “He (%) free” value is given as 21%, the “He (%) SUVs” value was determined as 29% and the “He (%) mics” value came to 49%. Further, the “ACTIVITY (%) LCAT” value in data set [2] is 1%.

In the case of PVLDAFRELLEALAQLKK [compound 223], in data set [1], the “He (%) TFE” value amounted to 51%, the “He (%) free” value stood at 21%, the “He (%) SUVs” value is listed as 23% and the “He (%) mics” value stood at 56%. Also, in data set [2], the “ACTIVITY (%) LCAT” value stood at 8%.

As for “PVLDEFREKLNEALEALKQKLK [peptide 94, reference compound]”, in data set [1], the “He (%) TFE” value came to 63%, the “He (%) free” value is 18%, the “He (%) SUVs” value is listed as 27% and the “He (%) mics” value is 70%. Besides, in data set [2], the “ACTIVITY (%) LCAT” value is listed as 5%.

In the case of PVLDEFREKLNEPLEALKQKLK [compound 113], in data set [1], the “He (%) free” value was found to be 6% and the “He (%) mics” value is 22%. Besides, the “ACTIVITY (%) LCAT” value in data set [2] is listed as 0%.

For the substance “PVLDEFREKLNERLEALKQKLK [peptide 109, reference compound]”, in data set [1], the “He (%) TFE” value amounted to 58%, the “He (%) free” value was found to be 19%, the “He (%) SUVs” value was 23% and the “He (%) mics” value is reported as 45%. Also, the “ACTIVITY (%) LCAT” value in data set [2] is 0%.

Take PVLDLFKELLNELLEALKQKLK [peptide 7]: in data set [1], the “He (%) TFE” value is 73%, the “He (%) free” value amounted to 77%, the “He (%) SUVs” value amounted to 85% and the “He (%) mics” value came to 89%. Moreover, in data set [2], the “ACTIVITY (%) LCAT” value stood at 83%.

PVLDLFNELLRELLEALQKKLK [compound 40]: in data set [1], the “He (%) TFE” value is 77%, the “He (%) free” value is given as 66%, the “He (%) SUVs” value is given as 79% and the “He (%) mics” value stood at 84%. Besides, in data set [2], the “ACTIVITY (%) LCAT” value is 25%.

In the case of PVLDLFRELLEELKQKLK [compound 210], in data set [1], the “He (%) TFE” value stood at 53%, the “He (%) free” value worked out at 20%, the “He (%) SUVs” value is listed as 37% and the “He (%) mics” value was determined as 63%. The “ACTIVITY (%) LCAT” value in data set [2] was found to be 46%.

For the substance PVLDLFRELLEELLKALKKKLK [compound 39], in data set [1], the “He (%) TFE” value amounted to 72%, the “He (%) free” value was found to be 66%, the “He (%) SUVs” value worked out at 68% and the “He (%) mics” value came out at 69%. Also, the “ACTIVITY (%) LCAT” value in data set [2] came out at 25%.

For the substance PVLDLFRELLEELQKKLK [compound 220], in data set [1], the “He (%) TFE” value is given as 64%, the “He (%) free” value worked out at 27%, the “He (%) SUVs” value is on record as 54% and the “He (%) mics” value was determined as 64%. Moreover, the “ACTIVITY (%) LCAT” value in data set [2] came out at 22%.

For PVLDLFRELLELLKQKLK [compound 217], in data set [1], the “He (%) TFE” value is 70%, the “He (%) free” value was 52%, the “He (%) SUVs” value stood at 76% and the “He (%) mics” value worked out at 78%. Also, in data set [2], the “ACTIVITY (%) LCAT” value worked out at 30%.

As for PVLDLFRELLNEGLEALKQKLK [compound 8], in data set [1], the “He (%) TFE” value is listed as 93%, the “He (%) free” value was 20%, the “He (%) SUVs” value is 61% and the “He (%) mics” value came to 90%. The “ACTIVITY (%) LCAT” value in data set [2] is 83%.

Take PVLDLFRELLNELLEALKQ [compound 60]: in data set [1], the “He (%) TFE” value came to 84%, the “He (%) free” value is listed as 39%, the “He (%) SUVs” value is reported as 66% and the “He (%) mics” value is recorded as 83%. Moreover, the “ACTIVITY (%) LCAT” value in data set [2] was 16%.

Turning to PVLDLFRELLNELLEWLKQKLK [compound 3], in data set [1], the “He (%) TFE” value turned out to be 95%, the “He (%) free” value came to 70%, the “He (%) SUVs” value was found to be 80% and the “He (%) mics” value is 95%. Moreover, the “ACTIVITY (%) LCAT” value in data set [2] is reported as 98%.

PVLDLFRELLNELLQKLK [compound 209]: in data set [1], the “He (%) TFE” value came to 62%, the “He (%) free” value is listed as 54%, the “He (%) SUVs” value was 67% and the “He (%) mics” value worked out at 71%. Also, in data set [2], the “ACTIVITY (%) LCAT” value was 47%.

Take PVLDLFRELLNELWEALKQKLK [compound 28]: in data set [1], the “He (%) TFE” value is recorded as 81%, the “He (%) free” value was 82%, the “He (%) SUVs” value amounted to 90% and the “He (%) mics” value is recorded as 98%. In addition, the “ACTIVITY (%) LCAT” value in data set [2] stood at 40%.

Regarding PVLDLFRELLNEWLEALKQKLK [compound 54], in data set [1], the “He (%) TFE” value was 78%, the “He (%) free” value stood at 76%, the “He (%) SUVs” value came out at 84% and the “He (%) mics” value worked out at 71%. In addition, in data set [2], the “ACTIVITY (%) LCAT” value turned out to be 19%.
